Measured values from patent US20260199327A1, “PHARMACEUTICAL COMBINATION AND PHARMACEUTICAL COMPOSITION FOR TREATING CANCER” (CSPC ZHONGQI PHARMACEUTICAL TECHNOLOGY (SHIJIAZHUANG) CO., …, priority 2022, published 2026).
Structures can show the parent of a compound that is named as a salt. Where two headings read alike, the source gives them in different places. Marks after values point to notes of the source that are not given here.

How the values were obtained:
[1] = system: Hep3B (human hepatocarcinoma cell line) xenograft; details: for Change Rate in Weight (%) / Number of Animals (Survived/Total): BALB/c Nude mice, gavage qd 16 days, palbociclib 50 mg/kg; for Change Rate in Weight (%) / TV(mm3) d16 / T/C d16 (%) (relative tumor volume proliferation rate) / TGI d16 (%) (tumor growth inhibition rate) / Tumor Weight / Tumor Weight Inhibition Rate (%) / Number of Animals (Survived/Total): compound of formula (B) 5 mg/kg, sorafenib tosylate 8 mg/kg; for growth of xenograft tumor (tumor volume) versus vehicle, in words / tumor growth (tumor weight) versus vehicle, in words: at the test dose; for TV(mm3) d16: d16, Mean ± SD; for TV(mm3) d16 / Tumor Weight: n = 6; for TV(mm3) d16 / T/C d16 (%) (relative tumor volume proliferation rate) / TGI d16 (%) (tumor growth inhibition rate) / Tumor Weight / Tumor Weight Inhibition Rate (%): palbociclib 50 mg/kg qd; for Tumor Weight / Tumor Weight Inhibition Rate (%): end of test; for Tumor Weight: Mean ± SD
Protocol: 36 BALB/c Nude mice, female, 18-20 g in body weight.
Compounds of formula (B), sorafenib tosylate, palbociclib.
Sorafenib tosylate/palbociclib: a solution of castor oil, anhydrous ethanol and ultrapure water in a volume ratio of 1:1:6.
In the solvent group, the solvents were administered at the same frequency and volume for 16 consecutive days.
4.3 Observation Criteria and Evaluation Criteria: Same as Example 2

[2] = 638 patients, cited from earlier work
[3] = patients taking sorafenib, N=2276; cited from earlier work
[4] = system: Hep3B (human hepatocarcinoma cell line) xenograft; details: for growth of tumor (tumor weight) versus vehicle, in words / growth of xenograft tumor (tumor volume) versus vehicle, in words: at the test dose; for TV (mm^3) d14: d14, Mean ± SD; for TV (mm^3) d14 / Tumor Weight: n = 7; for TV (mm^3) d14 / TGI d14 (%) (tumor growth inhibition rate) / Tumor Weight / Tumor Weight Inhibition Rate (%) / T/C d14 (%) (relative tumor volume proliferation rate): palbociclib 50 mg/kg qd; for Tumor Weight / Tumor Weight Inhibition Rate (%): end of test; for Tumor Weight: Mean ± SD
Excerpt: 42 NU/NU mouse, female, 42-48 days old, weighing 22-26 g.
Hep3B cells were resuscitated and passaged in vitro to the desired number of cells. The cells were counted under a microscope, and diluted with serum-free medium and matrix gel (1:1) to adjust the number of tumor cells to approximately 5×10^7 cells/mL. The cell suspension was placed in an ice bath.
Hep3B cell suspension was withdrawn with a sterile syringe for inoculation into subcutaneous tissue in the axilla of the forelimb of NU/NU mice, with a volume of 0.1 mL/per mice, containing approximately 5.0×10^6 tumor cells, to prepare NU/NU mice Hep3B xenogratf model.
In the vehicle group, the solvents were administered at the same frequency and volume for 14 consecutive days.
4.3 Observation Criteria and Evaluation Criteria • (1) General state observation: all animals were observed once a day during the test period and the abnormalities in various parts of the body and the behavior change situations were recorded. • (2) Body weight: all animals were weighed once before testing and the appropriate body weight of animals were selected for testing. Animals were weighed once a day at a fixed time after initiation of administration for weight monitoring, and body weight statistics were consistent with tumor volume statistics. • (3) Death and moribund: time of death was recorded for dead animals, moribund animals were observed more frequently, and time of death was determined. • (4) Tumor Evaluation
After animal grouping, tumor length and short diameters were measured twice per week. • (1) Tumor volume: V=½×a×b^2 • (2) Relative tumor volume:
[formula] • (3) Relative tumor volume proliferation rate:
[formula] • (4) Tumor growth inhibition rate:
[formula] • Note: V: Tumor volume • a: tumor length; b: tumor width; RTV: relative tumor volume; TVnd: tumor volume on day n; TV0d: tumor volume on day 0; RTVxnd: mean relative tumor volume on day n; TVXn: mean tumor volume on day n in the administrated group; TVX0: mean tumor volume on day 0 in the administrated group; TVMn: mean tumor volume on day n in the solvent (model) group; TVM0: mean tumor volume on day 0 in the solvent (model) group. • (5) Tumor weight
At the end of the test, the animals were sacrificed by cervical dislocation, and a tumor was stripped and weighed.
Data were processed using SPSS 19.0 statistical software. Repeated Measure process analyzed tumor volume changes between groups with multiple measurements over time. Multivariate process compared differences in tumor volume between groups at each measurement. Difference in tumor weight between groups was analyzed by LSD method of One-way ANOVA.

[5] = target: FGFR4 (Homo sapiens, UniProt P22455); experiment: FGFR4 kinase activity inhibition experiment (Caliper mobility shift assay); format: biochemical
FGFR4, sequence (P22455 22-802): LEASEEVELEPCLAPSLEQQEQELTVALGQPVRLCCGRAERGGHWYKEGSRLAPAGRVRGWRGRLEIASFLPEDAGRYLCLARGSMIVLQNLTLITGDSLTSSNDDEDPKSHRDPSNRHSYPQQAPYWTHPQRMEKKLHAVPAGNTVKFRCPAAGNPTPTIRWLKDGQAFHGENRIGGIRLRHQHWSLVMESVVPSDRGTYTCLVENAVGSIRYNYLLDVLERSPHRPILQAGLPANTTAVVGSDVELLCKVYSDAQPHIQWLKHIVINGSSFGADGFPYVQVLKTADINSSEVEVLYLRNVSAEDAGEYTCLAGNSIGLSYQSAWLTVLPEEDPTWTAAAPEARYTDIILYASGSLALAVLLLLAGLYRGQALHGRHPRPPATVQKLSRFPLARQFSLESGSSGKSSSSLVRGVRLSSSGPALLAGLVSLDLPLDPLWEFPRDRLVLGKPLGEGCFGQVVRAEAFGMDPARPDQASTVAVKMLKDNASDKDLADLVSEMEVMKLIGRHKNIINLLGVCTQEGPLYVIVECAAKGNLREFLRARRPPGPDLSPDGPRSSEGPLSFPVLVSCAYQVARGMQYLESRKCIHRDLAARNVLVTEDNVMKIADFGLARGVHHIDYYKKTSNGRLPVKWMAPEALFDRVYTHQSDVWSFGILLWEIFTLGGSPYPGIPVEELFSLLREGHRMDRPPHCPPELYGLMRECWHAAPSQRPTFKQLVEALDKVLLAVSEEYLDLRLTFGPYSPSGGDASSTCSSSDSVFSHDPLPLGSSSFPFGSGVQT
Protocol: FGFR4 protein kinase activity was determined using Caliper mobility shift assay. The compound was dissolved in DMSO and then diluted with kinase buffer, 5 μL of 5-fold final reaction concentration of compound (10% DMSO) was added to a 384-well plate. […] After incubation at 28° C. for 30-60 minutes, 25 μL of stop solution was added to stop the reaction. Conversion data was read on Caliper EZ Reader II (Caliper Life Sciences). The conversion rate was converted to inhibition rate (% inhibition=(max−sample conversion rate)/(max−min)*100), wherein max refers to the conversion rate of the DMSO control, and min refers to the conversion rate of enzyme-free control. Curve was plotted with compound concentration and inhibition rate on the horizontal and vertical coordinates respectively, and the curve was fitted and IC50 was calculated using XLFit excel add-in version 4.3.1 software.

[6] = system: Huh-7 cells; experiment: Huh-7 tumor cell proliferation inhibition assay (CellTiter Glo); format: cell-based; details: Homo sapiens, 72 or 168 hours
Protocol: Huh-7 cell suspension was adjusted to 5×10^4/ml or 2×10^4/ml with DMEM+2 mM Glutamine+10% FBS medium. 100 μL of cell suspension was added per well to a 96-well cell culture plate, to give a final cell concentration of 5000 cells/well (72 hours) or 2000 cells/well (168 hours). The compound to be tested (compound of formula (B)) was dissolved in DMSO to give 10 mmol of stock solution. 200× final concentration of compound was prepared with stock solution and DMSO, and 3× serial gradient dilutions were prepared, then diluted 20-fold each with medium. Finally, 10 μL of the corresponding 10-fold solution was added per well for each cell, wherein each drug concentration was added in one well. […] After 72 or 168 hours of drug treatment, according to CTG instructions (CellTiter Glo), 100 μL of CTG solution that had been previously thawed and equilibrated to room temperature was added per well, mixed for 2 minutes using a microplate shaker, placed at room temperature for 10 minutes, and then chemiluminescent signal value was measured with EnSpire plate reader. Cell survival was calculated using formula: (Vsample−Vblank)/(Vvehicle control−Vblank)×100%, wherein Vsample is the reading of the drug treatment group, Vvehicle control is the average of the solvent control group, and Vblank is the average of the blank control wells. […]

[7] = most common drug-related adverse events
[8] = NU/NU mice, gavage qd 14 days, compound of formula (B) 5 mg/kg, lenvatinib mesylate 8 mg/kg, palbociclib 50 mg/kg
[9] = compound of formula (B) 5 mg/kg, lenvatinib mesylate 8 mg/kg
[10] = listed as compound of formula (B)

Compound | Change Rate in Weight (%) [1] [%] | growth of xenograft tumor (tumor volume) versus vehicle, in words [1] | tumor growth (tumor weight) versus vehicle, in words [1] | TV(mm3) d16 [1] [mm3] | T/C d16 (%) (relative tumor volume proliferation rate) [1] | TGI d16 (%) (tumor growth inhibition rate) [1] | Tumor Weight [1] [g] | Tumor Weight Inhibition Rate (%) [1] [%] | Number of Animals (Survived/Total) [4, 8] | growth of tumor (tumor weight) versus vehicle, in words [4] | growth of xenograft tumor (tumor volume) versus vehicle, in words [4] | TV (mm^3) d14 [4, 9] | TGI d14 (%) (tumor growth inhibition rate) [4, 9] | Tumor Weight [4, 9] [g] | Tumor Weight Inhibition Rate (%) [4, 9] [%] | T/C d14 (%) (relative tumor volume proliferation rate) [4, 9] | Number of Animals (Survived/Total) [1] | further results
CNC(=O)c1cc(Oc2ccc(NC(=O)Nc3ccc(Cl)c(C(F)(F)F)c3)cc2)ccn1.Cc1ccc(S(=O)(=O)O)cc1 [Sorafenib Tosylate, 4-{4-[3-(4-chloro-3-trifluoromethyl-phenyl)-acylurea]-phenoxy}-pyridine-2-carboxylic acid methylamide-4-toluenesulfonate] | −17.5 | failed to inhibit the growth of xenograft tumor | failed to inhibit tumor growth | 717.2 ± 222.7 | 84.5 | 30.9 | 0.79 ± 0.23 | 27.8 | – | – | – | – | – | – | – | – | – | T/C d16 (%) (relative tumor volume proliferation rate) ([1]; listed as sorafenib tosylate): 91.3%; TGI d16 (%) (tumor growth inhibition rate) ([1]; listed as sorafenib tosylate): 31.4%; Tumor Weight Inhibition Rate (%) ([1]; listed as sorafenib tosylate): 19.1%
CNC(=O)c1cc(Oc2ccc(NC(=O)Nc3ccc(Cl)c(C(F)(F)F)c3)cc2)ccn1 [sorafenib] | – | – | – | – | – | – | – | – | – | – | – | – | – | – | – | – | – | incidence of CTC (version V2.0) Grade 3 drug-related adverse events [2]: 37%; incidence of CTC (version V2.0) Grade 4 drug-related adverse events [2]: 3%; diarrhea [2, 7]: 37%; hand and foot skin reactions [2, 7]: 35%; malaise [2, 7]: 33%; rash [2, 7]: 38%; incidence of congestive heart failure [3]: 1.9%
COc1cc2nccc(Oc3ccc(NC(=O)NC4CC4)c(Cl)c3)c2cc1C(N)=O [Lenvatinib Mesylate, 4-[3-chloro-4-(N′-cyclopropylureido)phenoxy]-7-methoxyquinoline-6-carboxamide mesylate] | – | – | – | – | – | – | – | – | 7/7 | significantly inhibited the growth of the xenograft tumor | significantly inhibited the growth of the xenograft tumor | 533.1 ± 212.6** mm^3 | 57.4 | 0.5600 ± 0.1923 | 58.0 | – | – | –
CC(=O)c1c(C)c2cnc(Nc3ccc(N4CCNCC4)cn3)nc2n(C2CCCC2)c1=O [Palbociclib, 6-acetyl-8-cyclopentyl-5-methyl-2-{[5-(piperazin-1-yl)pyridin-2-yl]amino}pyrido[2,3-d]pyrimidin-7 (8H)-one] | −24.7 | failed to inhibit the growth of xenograft tumor | failed to inhibit tumor growth | 711.6 ± 313.8 | 91.3 | 31.4 | 0.89 ± 0.30 | 19.1 | 7/7 | did not inhibit the growth of tumor | failed to inhibit the growth of xenograft tumor | 948.8 ± 361.2 mm^3 | 11.0 | 1.3047 ± 0.4823 | 2.1 | 95.8 | 6/6 | T/C d16 (%) (relative tumor volume proliferation rate) ([1]; listed as palbociclib): 75.1%; TGI d16 (%) (tumor growth inhibition rate) ([1]; listed as palbociclib): 44.5%; Tumor Weight Inhibition Rate (%) ([1]; listed as palbociclib): 46.4%
N#Cc1cnc(NC(=O)N2CCCc3cc(CN4CCN5CCC[C@H]5C4=O)c(C=O)nc32)cc1NC1CC1 [Compound of formula (B)] | −12.0 | can significantly inhibit the growth of the xenograft tumor | can significantly inhibit tumor growth | 608.1 ± 293.4 | 75.1 | 44.5 | 0.59 ± 0.34 | 46.4 | 7/7 | significantly inhibited the growth of the xenograft tumor | significantly inhibited the growth of the xenograft tumor | 607.8 ± 277.1** mm^3 | 49.1 | 0.7481 ± 0.3692 | 43.8 | 55.8 | 6/6 | IC50 [5]: < 5 nM; Change Rate in Weight (%) [4, 8]: −4.5%; IC50 [6]: < 10 nM; T/C d16 (%) (relative tumor volume proliferation rate) [1, 10]: 84.5%; TGI d16 (%) (tumor growth inhibition rate) [1, 10]: 30.9%; tumor volume growth compared to model (vehicle) group at corresponding time points, in words ([1]; days as stated (d13-d16 alone; d3-d6, d10-d16 with sorafenib tosylate; d6-d16 with palbociclib)): can significantly inhibit tumor volume growth; Tumor Weight Inhibition Rate (%) [1, 10]: 27.8%
